Assay results from publication PMC11462260, “Anthricin-induced hyperactive proteasome and its molecular mechanism” (Biochemistry and Biophysics Reports, 2024).

Biological target: T1, human 20S proteasome (Homo sapiens, UniProt P28072+P28074+Q99436)
T1 construct: gene PSMB6; native 20S core particle from human erythrocytes (commercial), 28 subunits of 14 types, lysine-biotinylated, on streptavidin beads
Assay: pull-down on biotinylated proteasome beads, LC-MS/MS of eluate
Conditions: 20 uM anthricin, 250 pmol proteasome, 30 min, room temperature, D-PBS with 0.1 % BSA; binding site not mapped experimentally

## COc1cc([C@@H]2c3cc4c(cc3C[C@H]3COC(=O)[C@@H]32)OCO4)cc(OC)c1OC [anthricin]
  pull-down on biotinylated proteasome beads, LC-MS/MS of eluate: When anthricin was mixed with the proteasome-immobilized beads, a clear peak corresponding to anthricin was detected
